The values that follow come from patent US9260473B2, “Bivalent multifunctional ligands targeting Aβ oligomers as treatment for Alzheimer's disease” (Virginia Commonwealth University, priority 2010, dated 2016).

For one series, the system named is MC65 cells. As to the kind of experiment: Cytotoxicity assay in MC65 cells (MTS, +TC/−TC). The format is cell-based, human. From the text:
Protective effects of 14 on AβOs-induced cytotoxicity in MC65 cells and differentiated human neuroblastoma SH-SY5Y cells. […] To further verify whether 14 can protect cells from extracellular AβOs-induced cytotoxicity, all trans-retinoic acid differentiated human SH-SY5Y cells were employed. […] This may further indicate that while both 1 and 14 can bind to AβOs, CM/LR anchorage of 14 can increase its accessibility to intracellular target AβOs. Since CM/LR are crucial for many aspects of cell signaling and functions, 14 was further evaluated for its potential cytotoxicity in mouse spleen and natural killer (NK) cells.
Cytotoxicity assay in MC65 cells. MC65 cells were seeded in 96-well plates (4×10^4 cells/well) at 37° C., 5% CO2 for 24 hrs. The medium was removed and washed with PBS twice. Opti-MEM and test compounds were added under +TC and −TC conditions. The plates were incubated at 37° C., 5% CO2 for 72 hrs, then 20 uL CellTiter 96 AQueous One Solution (Promega, Madison, Wis.) were added to each well and the plates were incubated at 37° C., 5% CO2 for 2-4 hrs. The plates were read at 490 nm using FlexStation III plate reader (Molecular Devices). The blank with only test compounds in Opti-MEM was set up as background control for all of the tested concentrations. Each data point was averaged from six replicates and the experiments were independently repeated at least three times.

In series [1] the test system is AβOs. As to the kind of experiment: Western blot assay of AβOs formation in MC65 cells (6E10 antibody). The format is cell-based, human. The conditions noted are these: 10 μM, 24 hrs after removal of TC. The text has this: Inhibition of AβOs production by designed BMAOIs. […] The whole cell assay is a composite of not only Aβ oligomerization inhibition but also permeability, stability and other factors will validate the accessibility and function of our BMAOIs. MC65 is a human neuroblastoma cell line that conditionally expresses C99, the C-terminus fragment of APP using tetracycline (TC) as transgene suppressor.^38 Upon removal of TC, these cells can produce intracellular Aβ aggregates including small AβOs. […] All BMAOIs were first evaluated at a single concentration of 10 μM. Candidate compounds with inhibitory activities at this concentration were further evaluated in a dose-dependent manner in the following assays. […]
Western blot assay. […] Pellet was lysed by sonication in 1× lysis buffer (62.5 mM Tris base, pH6.8, 2% SDS, 50 mM DTT, 10% glycerol, 0.1% bromphenol blue, and […] each chymostatin, leupeptin, aprotinin, pepstatin, and soybean trypsin inhibitor) and protein level was determined using Coomassie Protein Assay Reagent (Pierce, Rockford, Ill.). […]
(Immunoblotting shows a protein as a band on a membrane.)

The subject of series [2] is intracellular oxidative stress. As to the kind of experiment: DCFH-DA antioxidation assay in MC65 cells. Type of series: cell-based, human. The conditions noted are these: −TC, 24 hrs.
Procedure: DCFH-DA antioxidation assay. MC65 cells were seeded in 96-well plates (4×10^4 cells/well). After incubation at 37° C., 5% CO2 for 24 hrs, the medium was removed and washed with PBS. Opti-MEM and test compounds were added (+TC, −TC, and blank with only test compounds). MC65 cells were incubated at 37° C., 5% CO2 for 24 hrs. Then DCFH-DA in Opti-MEM was added to each well (final DCFH-DA concentration was 25 uM) and incubate at 37° C., 5% CO2 for 30 min. The medium was removed and replaced with fresh opti-MEM and plates were read for fluorescence intensity at 485 nm (excitation)/530 nm (emission) using FlexStation III plate reader (Molecular Devices).
The target of another series is T1, Aβ42 (Homo sapiens, UniProt P05067).
T1 construct: Aβ42 was obtained from American Peptide, Inc. (Sunnyvale, Calif.); purchased American Peptide, Inc. (Sunnyvale, Calif.)
Put plainly: Aβ42 oligomerization inhibition assay (Western blot). Type of series: biochemical. The conditions noted are these: Aβ42 5 μM, compound 20 μM, 4 hrs at 37° C.

Series [3] relates to AβOs. Put plainly: Immunocytochemistry assay of AβOs in MC65 cells (A11 antibody). The conditions noted are these: 10 μM, 24 hrs after removal of TC. The format is cell-based, human.
Procedure: MC65 cells were treated with the indicated compounds (10 μM) immediately after the removal of TC. After 24 hrs, the cells were fixed and immunofluorescently stained for AβOs, CM/LR, and nucleus and imaged with a Leica TCS-SP2 AOBS confocal laser scanning microscope. Five areas were examined.
Immunocytochemistry assay. MC65 cells were plated onto Lab-Tee chamber slides (1×10^4 cells/well). After 24 hrs incubation at 37° C. and 5% CO2, Opti-MEM was added (with or without TC) and followed by test compounds. MC65 cells were incubated for 24 hrs. MC65 cells were rinsed 3× with PBS and incubated with Alexa 488-conjugated CTX-B (10 ug/mL) for 15 min on ice. After rinsing once with ice-cold PBS, cells were fixed for 30 min with 4% paraformaldehyde. MC65 cells were permeabilized for 30 min with 0.1% Triton X 100. Then MC65 cells were stained with A11 rabbit antibody followed by anti-rabbit Alexa 568 (1:500). Finally MC65 cells were treated with DAPI (5 ug/mL) and mounted with Vectashield Mounting Media. Cell fluorescence was analyzed by a Leica TCS-SP2 AOBS confocal laser scanning microscope equipped with blue diode, Argon, and 3 HeNe (lasers as well as a spectrophotometer based detection system with variable detector windows) using excitation lines at 355 nm, 488 nm, and 568 nm for DAPI, Alexa 488-conjugated CTX-B, and Alexa Fluor 568 donkey anti-rabbit IgG. […]
A further series deals with SH-SY5Y cells. As to the kind of experiment: Cytotoxicity assay in differentiated SH-SY5Y cells treated with AβOs. Type of series: cell-based, human. The conditions noted are these: AβOs 1 μM.

T1 sequence (P05067 672-713 limits assumed): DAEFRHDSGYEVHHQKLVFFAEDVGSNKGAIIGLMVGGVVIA
Procedure for Aβ42: In order to confirm 14 can bind to AβOs, the inhibition of Aβ42 oligomerization was performed and assessed using Western blot analysis as described in literature^29 in order to investigate binding interactions of 14 with Aβ42 and the CM/LR of MC65 cells. Briefly, Aβ42 (5 μM) was incubated with or without compounds (20 μM), then samples were analyzed by Western blot using 6E10 antibody.
Aβ42 oligomerization inhibition assay. An aliquot of Aβ42 (0.045 mg) was dissolved in 20 μL of DMSO and diluted in Ham's F-12 media without phenol red (Caisson's Laboratory, Inc., Utah). […] After incubation, the samples (50 μL) were spun down at 14,000×g for 10 min. The supernatant (20 μL) was mixed with an equal part of Tricine sample buffer without reducing agents (Bio-Rad). The unaggregated Aβ42 control was not incubated at 37° C., and mixed with sample buffer (no centrifuging) and stored at −80° C. before it was electrophoresed. Samples (25 μL) were electrophoresed on a 10-20% Tris-Tricine gel, transferred to PVDF membrane, and blocked with 10% nonfat milk in PBS for 30 min. […] The proteins were visualized by Western Blot Chemiluminescence Reagent (NEN Life Science Products, Boston, Mass.).
Procedure for SH-SY5Y cells: Cytotoxicity assay in differentiated SH-SY5Y cells. SH-SY5Y cells were plated at 10,000 cells/well in type 1 collagen coated 96-well plates (Invitrogen) and were differentiated in Opti-MEM supplemented with 2% B-27 (Invitrogen) and 10 μM all-trans-retinoic acid for 7 days. The medium was removed and replaced with fresh maintenance medium. Freshly prepared Aβ42 oligomers in Ham's F-12 medium (1 μM) was added to cells for 48 hrs at 37° C. with or without test compounds. After treatment, 20 uL CellTiter 96 AQueous One Solution (Promega, Madison, Wis.) were added to each well and the plates were incubated at 37° C., 5% CO2 for 2-4 hrs. The plates were read at 490 nm in FlexStation III plate reader (Molecular Devices). Each data point was averaged from six replicates and the experiments were independently repeated at least three times.

In the case of `CC(=O)N[C@@H](CS)C(=O)O` [NAC, N-acetylcysteine], the “rescue of MC65 cells from AβOs-induced cytotoxicity” value with MC65 cells (−TC) stood at 48%.

With `COc1cc(/C=C/C(=O)CC(=O)/C=C/c2ccc(O)c(OC)c2)ccc1O` [compound 1, curcumin, reference compound], the “inhibition of the formation of AβOs (Western blot)” value in the series on AβOs [1] is “did not exhibit inhibition”. Moreover, the “suppression of intracellular oxidative stress (DCFH-DA fluorescence)” value in series [2] was “suppressed the intracellular oxidative stress in a dose-depndent manner”. For the same compound, in the series on MC65 cells (+TC, tested concentrations, 72 hrs, MTS), the “toxic effects on MC65 cell viability in the presence of TC” value is reported as “no toxic effects”. Further, in the series with MC65 cells (−TC, 72 hrs, MTS), the “protective effects on MC65 cell viability upon removal of TC” value was “minimal protective effects”. In addition, the “inhibition of oligomerization of Aβ42” value on Aβ42 is reported as “inhibited the oligomerization of Aβ42”. For the same compound, the “formation of AβOs (A11 immunocytochemistry)” value with AβOs [3] was “slightly suppressed”. Besides, the “protection of SH-SY5Y cell viability from AβOs” value was “not at 16 μM” with SH-SY5Y cells (48 hrs, 16 μM); “moderate protective activities” with SH-SY5Y cells (48 hrs, 2, 4, and 8 μM).

For `Cc1c(C)c2c(c(C)c1O)CCC(C)(C(=O)O)O2` (stereo not shown) [trolox, 6-hydroxy-2,5,7,8-tetramethyl chroman-2-carboxylic acid], the “rescue of MC65 cells from AβOs-induced cytotoxicity” value in the series with MC65 cells (−TC, 32 μM) was “completely rescued”.
